Legend:
[1] = ^1O2 generation upon X-ray irradiation (ESR, TEMP trap); type: physicochemical; conditions: X-ray irradiation, ESR
Protocol: To study ^1O2 generation, a mixture of DPAS or IDPAS (100 M) and TEMP (10 mM) in PBS (0.01 M, pH 7.4, 50% DMSO) was irradiated by X-rays at 2 Gy (100 mGy s^−1 for 20 s) or 5 mGy (250 μGy s^−1 for 20 s). The ESR signals of the mixture were recorded with a Bruker A300 instrument. The ESR signal of the free radical 2,2,6,6-tetramethyl-1-piperidinyloxyl (g=2.0060) was generated by the reaction of ^1O2 with TEMP. The ^1O2 quencher NaN3 (1 mM) was added to validate the afterglow mechanism of IDPASu. Additionally, other commercially available radio sensitizers (such as acridine orange, hematoporphyrin and verteporfin) were measured and compared. The procedure of block depths was similar to that of the tissue penetration depth study and the ^1O2 generation for different depth tissues was measured. The ESR signal changes of MRAP in the absence or presence of CatB were measured in a similar way. The ESR signals of 2,2,6,6-tetramethyl-1-piperidinyloxyl from the reaction of ^1O2 with TEMP were plotted as a function of the concentration of ^1O2, which was generated by the addition of NaOCl to H2O2. This generated the standard curve between the ESR intensity and ^1O2 concentration.

[2] = Cell viability of U87 cells with IDPASu (Cell Counting Kit-8); type: cell-based, human; conditions: human, u87 cells; 100 μM; read-out: cell viability without X-ray
Protocol: (§1) All the cells were purchased from the American Type Culture Collection, including CatB-negative cells (mouse embryonic fibroblasts 3T3 cells, RAW 264.7, 293-T and human monocytic THP-1 cells) and CatB-positive cells (human U87 glioblastoma cells, U87-luciferase cells, A549 lung epithelial cells and 4T1 and melanoma B16-F10). All the cells were cultured
(§2) in Dulbecco's modified Eagle medium (Gibco) or RPMI 1640 medium containing 10.0% foetal bovine serum (Gibco) and 0.1% ciprofloxacin in a humidified atmosphere containing 5.0% CO2 and 95.0% air at 37° C. To study the cell viability of IDPASu, U87 cells (1×10^4 per well) were seeded on 96-well plates and incubated for 24 h. IDPASu at different concentrations (0, 2.5, 5.0, 10.0, 25.0, 50.0 and 100.0 μM) were added to the U87 cell medium for 12 h incubation. After incubation, 96-well plates were covered with chicken breast tissues with different thicknesses (0, 5, 8 and 15 cm), followed by X-ray irradiation. The X-ray setup was optimized to ensure the cells in all the wells received similar dose of X-ray irradiation (2 Gy) before chicken breast tissue coverage (0 cm). After irradiation, the cells were further incubated for 12 h, followed by the colorimetric Cell Counting Kit-8 assay. Briefly, Cell Counting Kit-8 solution (10 l, Dojindo Molecular Technologies) was added into the cell medium (100 l) for 2 h incubation, and the absorbance of medium at 450 nm was recorded using a microplate reader (ReadMax 1900). The cells without IDPASu incubation and X-ray irradiation were set as control. The cell viability (%) was calculated by the absorbance of treated cells over that of the control cells. To test the cell viability of activatable MRAP, U87 and 3T3 cells (1×10^4 per well) were seeded on 96-well plates and incubated for 24 h. The inhibitor group was pre-treated with a CatB inhibitor (CA-074, 1 mM) for 10 h incubation. MRAP at different concentrations (0, 2.5, 5.0, 10.0, 25.0, 50.0 and 100.0 µM) were added to the U87 and 3T3 cell medium for 12 h incubation. […]

[3] = system: U87 cells; test: as above; type: cell-based, human
Protocol: as §1, §2

[4] = Radio afterglow spectra, intensity and half-life of luminophores in PBS after X-ray; type: physicochemical
Protocol: The optical properties of DPAs and IDPAs were investigated in an aqueous solution (FIGS. 2 and 3). […] Their half-lives ranged from 9.2 to 196.8 min (FIG. 4e).
DPAs or IDPAs (100 μM) in 0.01 M PBS (pH 7.4, 50% DMSO) were irradiated by X-rays at 250 μGy s^−1 for 20 s (total, 5 mGy) under the specific setup parameter of 10 kV and 75 μA. Then, the radio afterglow signal was collected with an IVIS imaging system under the bioluminescence mode with an open filter and an acquisition time of 60 s. Finally, the radio afterglow intensities were quantified by a region-of-interest analysis using Living Image 4.3 software. In addition, the radio afterglow spectra of the candidates were acquired under the same test conditions with specific emission filters, and time courses of the signal were recorded as a function of time.

[5] = O2·^− detection with DHR123 upon X-ray irradiation; type: physicochemical; conditions: elevated radiation dosage
Protocol: To study other ROS generation, fluorescence sensors DHR123 (for O2·^− detection) and HPF (for ·OH detection) were used. For O2·^− detection, DHR123 (10 PM) was added to a solution of IDPASu (10 M) in PBS (0.01 M pH 7.4, 50% DMSO), followed by X-ray irradiation at different doses of 5 mGy (250 μGy s^−1 for 20 s) and 2 Gy (100 mGy s^1 for 20 s). The fluorescence changes in DHR123 were recorded at λex of 505 nm and λem of 534 nm. For ·OH detection, HPF ([…]) was added in a solution of IDPASu (10 M) in PBS (0.01 M, pH 7.4, 50% DMF), followed by X-ray irradiation at different doses, namely, 5 mGy (250 μGy s^−1 for 20 s) and 2 Gy (100 mGy s^−1 for 20 s). The fluorescence changes in HPF were collected at ex of 450 nm and λem of 515 nm. The ROS production was calculated by the corresponding standard curve.

**Q.** Which results are given for `COC(=C1C2CC3CC(C2)CC1C3)c1cc(O)c(I)cc1/C=C/C1=CC(=C(C#N)C#N)c2ccccc2S1` [IDPASu]?
**A.** ^1O2 generation / radiodynamic activity [1]: the highest; viability at 24 h, 100 µM [2]: 91%; cell viability under X-ray irradiation ([3]; 100 μM, X-ray 2 Gy, 100 mGy s^−1 for 20 s, no tissue): 1.4%; cell viability under X-ray irradiation at tissue depth of 15 cm ([3]; X-ray through 15 cm chicken breast tissue): 31.9%; radio afterglow intensity increase versus iodine-free counterpart ([4]; 100 μM, PBS pH 7.4, 50% DMSO, X-ray 5 mGy): 6.46 fold; correlation of radio afterglow signal with concentration ([4]; IDPASu solution): linear correlation; long-lasting radio afterglow, up to ([4]; X-ray 250 μGy s^−1 for 20 s): ~ 25 h; radio afterglow emission maximum ([4]; X-ray 250 μGy s^−1 for 20 s, aqueous solution): ~ 773 nm; radio afterglow brightness / intensity ([4]; X-ray irradiation): highest brightness; repetitive induction of radio afterglow ([4]; after ten cycles of X-ray irradiation): minimal intensity decrease after ten cycles; O2·^− generation [5]: only minimal O2·^− could be generated

Source: patent US20260335468A1, “MOLECULAR RADIOAFTERGLOW PROBES FOR CANCER RADIODYNAMIC THERANOSTICS” (NANYANG TECHNOLOGICAL UNIVERSITY, priority 2023, published 2026)
